Data on 65 molecules can be found in a melting point compilation (Tetko et al.; mined from patent text by program, amines drawn as free bases though some values may be those of a salt).

Take `CC(C)(C)c1ccc(CNC(=O)C(Cc2ccccc2)NC(=O)Nc2n[nH]c(=S)s2)cc1` (stereo not given): the melting point (as a rule, the temperature, or range, at which the solid turns liquid) was 213 to 214 °C.

`CCc1ccccc1NC=C1C(=O)N(c2cccc(C#N)c2)N=C1C` returned a melting point of 211 °C.

For the molecule `COc1ccc(-c2[nH]nc3c2C(=O)c2c(NC(=O)CN4CCC(O)CC4)cccc2-3)cc1`, the melting point is greater than 300 °C.

`CC(C)N[C@H](C(=O)NCCCC(c1ccc(F)cc1)c1ccc(F)cc1)C(C)C` had a melting point of 72 to 80 °C.

`Cc1cnc2ccc(-c3cccc(C(F)(F)F)c3)nn12`: the melting point fell in the range of 105 to 107 °C.

Take `COc1ccc(C(=O)c2c(N)sc3c2CCN(Cc2ccccc2)C3)cc1`: the melting point was in the range of 164 to 165 °C.

Take `N#Cc1ccc(C=Cc2ccccc2)cc1`: the melting point was 119 °C.

On to `CC(=O)N1CCN(c2ccc(C3CCS(=O)(=O)NC3)cc2)CC1` (stereo not given), for which the melting point was in the range of 196 to 197 °C.

Molecule `CCN(CC)C(=O)c1cc(-n2c(=O)cc(C(F)(F)F)[nH]c2=O)c(F)cc1Cl` had a melting point of 253 to 254 °C.

Turning to `CCOC(=O)COc1c(C)c(C(F)(F)F)nc(C(F)(F)F)c1C(=O)OCC`, the melting point was 42 to 44 °C.

`CCOc1cc(F)cc2c1c(CCN(C)C)cn2CC`: the melting point lay in the range of 77.1 to 78.2 °C.

On to `CCN(CC)Cc1nc(-c2ncn3c2CN(C)C(=O)c2cc(F)ccc2-3)no1`, for which the melting point lay within 172 to 174 °C.

`CC1(C)C=Cc2ccc(F)c(C#N)c2O1` yielded a melting point of 99 to 101 °C.

`CCC1CC(=O)NN=C1c1ccc2nc(-c3ccncc3)[nH]c2c1` (stereo not given): the melting point is 299 to 302 °C.

In the case of `NN=C1c2ccccc2-c2ccc(Cl)cc21`, the melting point lay within 139 to 143 °C.

`CCOC(=O)N1CCN(Cc2nc3cccnc3n2CCO)CC1` yielded a melting point of 117 °C.

On to `CCOC(=O)c1cn(C2CC2)c2nc(N3CC(C)C(N)C3)c(F)cc2c1=O` (stereo not given), for which the melting point was 148 to 150 °C.

As to `NS(=O)(=O)OCC1COc2cc(Cl)c(Cl)cc2O1` (stereo not given), the melting point is 109 to 111 °C.

In turn, `COc1ccc(N)c(OC)c1COc1cccc2ccc(C)nc12` displayed a melting point of 208 to 210 °C.

`Cc1cccc(SCn2cc(Br)cnc2=O)c1`: the melting point amounted to 164 °C.

As to `CC1(C)COC1(Cn1cncn1)c1ccc(F)cc1F` (stereo not given), the melting point was 76 to 78 °C.

With `CC(C)[C@H](NC(=O)OCc1ccccn1)C(=O)O`, the melting point is 116 to 118 °C.

With `COC(=O)c1ccc(-c2nc(-c3cc(Cl)sc3Cl)cs2)cc1`, the melting point fell in the range of 149 to 150 °C.

Turning to `CC(C)OC1(c2ccc(Cl)cc2)OC(c2ccncc2)=Nc2ccccc21` (stereo not given), the melting point was in the range of 114 to 115 °C.

The molecule `CC(=O)Nc1c(C)ccc(N)c1C` had a melting point of 195 to 197 °C.

Turning to `CC(C)c1cccc(C(C)C)c1N1C(=O)c2cccc3c(C(N)=O)ccc(c23)C1=O`, the melting point was determined as 233 °C.

The molecule `CCN(c1ccc(Cl)cc1)c1cc(NC)nc(C)n1` registered a melting point of 133 to 136 °C.

Turning to `Nc1nc2n(C3OC(CO)C(O)C3O)[nH]cc-2c(=S)n1` (stereo not given), the melting point lay in the range of 222 to 224 °C.

Take `C#Cc1cccc(Nc2ncnc3cc(OCCOC(C)=O)c(OCCOC(C)=O)cc23)c1`: the melting point fell in the range of 137 to 138 °C.

In the case of `COC(=O)[C@@H]1CCCN1S(=O)(=O)c1ccc(C)c(C(=O)Cl)c1C`, the melting point was determined as 92 °C.

As to `Cc1cc(F)cc([N+](=O)[O-])c1N`, the melting point fell in the range of 111 to 113 °C.

Turning to `COc1nc(N)nc(OC)n1`, the melting point lay within 218 to 221 °C.

Consider `CCOC(=O)c1ccc(COc2cccc3nc(C(=O)NCc4cccc(OC)c4)[nH]c(=O)c23)cc1`, for which the melting point was in the range of 205 to 207 °C.

For `CCOC(=O)C(NC(=O)CSC)C(=O)OCC`, the melting point fell in the range of 56 to 58 °C.

Turning to `CC(C)Cn1c(CNC(=O)OC(C)(C)C)c(-c2cccc(F)c2)c2cc(C(N)=O)ccc2c1=O`, the melting point lay in the range of 147 to 149 °C.

In turn, `CCCCCCCCCCCCCCCCCC(=O)N1CCN(c2cc(N3CCCC3)nc(N3CCCC3)n2)CC1` registered a melting point of 102 to 104 °C.

Molecule `O=C(c1ccc(Cl)c([N+](=O)[O-])c1)c1ccc(F)cc1F` yielded a melting point of 90.5 °C.

On to `COc1ccc(C(O)(Cc2ccncc2)c2ccncc2)cc1OC1CCCC1` (stereo not given), for which the melting point was 99 to 103 °C.

The molecule `Cc1cnc2c(NC(=O)c3c(Cl)cccc3Cl)cccc2c1-n1ccnc1` displayed a melting point of 224 to 228 °C.

Consider `O=C(Nc1ccc(Br)c2ccccc12)c1cc(F)cc(N2CCOCC2)c1`, for which the melting point was 187 to 189 °C.

The molecule `CC(C)CNCc1cnc2[nH]c(-c3cc(OCc4ccccc4)ccc3OC(C)C)nc2c1` had a melting point of 101 to 103 °C.

On to `COC(=O)NNc1n[nH]c2cc(Cl)ccc12`, for which the melting point fell in the range of 223 to 224 °C.

On to `COc1ccc(/C(=C/C=C/C(=O)Oc2ccc([N+](=O)[O-])cc2)c2cccs2)cc1`, for which the melting point is 113 to 115 °C.

In the case of `Cc1nc(-c2cccc(C(F)(F)F)c2)oc1COc1ccc(CCC(=O)O)cc1`, the melting point is 134 to 135 °C.

`CCOC(=O)C1=Cc2cc(Cl)cc(CO)c2OC1C(F)(F)F` (stereo not given) gave a melting point of 98 to 100 °C.

In the case of `C=Cn1nc(-c2ccc(OC)cc2)cc(C(=O)NC)c1=O`, the melting point lay within 130 to 133 °C.

Take `N#Cc1ccccc1N1CCc2ccccc21`: the melting point was in the range of 94 to 96.5 °C.

Regarding `Nc1ncccc1NCc1ccc(OCc2cccc(F)c2)cc1`, the melting point is 91 to 93 °C.

`COc1cc(-c2cccs2)cc(OC)c1/C=C/C(=O)c1ccc(C(=O)O)cc1`: the melting point fell in the range of 256 to 258 °C.

`NS(=O)(=O)c1ccc(NN=C2C(=O)Nc3ccc(C(=O)NCCCn4ccnc4)cc32)cc1` came in with a melting point greater than 230 °C.

As to `COc1cc(-c2c(C)noc2C)cc2oc(=O)c(C)c(C)c12`, the melting point fell in the range of 145 to 147 °C.

Molecule `O=c1c(CCc2nc3ccccc3s2)cc2cccnc2n1-c1cccc([N+](=O)[O-])c1` returned a melting point of 178 to 179 °C.

`Cc1cc(=O)c2cc(NC(=O)C(=O)O)ccc2s1` came in with a melting point of 238 to 240 °C.

With `CCCCCCn1ccc(N)nc1=O`, the melting point fell in the range of 216 to 217 °C.

Regarding `NC(C=Cc1cccs1)=NO`, the melting point worked out at 92 °C.

The molecule `CCOC(=O)c1cnc2n(c1=O)C(C)CCC2=NNc1ccccc1` (stereo not given) came in with a melting point of 138 to 139 °C.

In turn, `O=c1c2cccnc2n(-c2cccc([N+](=O)[O-])c2)c(=O)n1CCO` came in with a melting point of 212 to 213 °C.

In turn, `NOC(=O)C(=C(C(=O)C(F)(F)F)c1ccccc1)c1ccccc1` had a melting point of 175 °C.

For the molecule `COc1ccc2nc(C)cc(Oc3cc(-c4ccc(C(F)(F)F)cc4)ncn3)c2c1`, the melting point was 165 to 166 °C.

Consider `Cc1ccc(-c2ccccn2)cc1S(N)(=O)=O`, for which the melting point fell in the range of 173 to 176 °C.

The molecule `COc1ccccc1-n1c(-c2sc(Nc3ccc(Cl)cc3)nc2-c2ccccc2)nc2ccccc2c1=O` displayed a melting point of 230 to 232 °C.

`CCOC(=O)C1=CC2(CCC1S(=O)(=O)Nc1ccc(F)cc1Cl)OCCCCO2` (stereo not given) gave a melting point of 142 to 144 °C.

With `CC1Cc2ccccc2NC1C1=NCCN1` (stereo not given), the melting point was in the range of 138 to 139 °C.

`CCOC(=O)c1cn(C2CC2)c2c(CN3CCCC3)c(N3CCOCC3)c(F)cc2c1=O` displayed a melting point of 227 to 232 °C.

`Cn1nc(C2(OCC3CCN(C(=O)OC(C)(C)C)CC3)C=CC=CC2)c2ccccc2c1=O` (stereo not given) yielded a melting point of 167 to 169 °C.
